Key:
Hepg2 cells = assay: Slide in situ hybridization, effect of DMSO (Example 1), Hepg2 cells, Y probe; assay type: cell-based, human; settings: assay solution HC + 10% DMSO
Excerpt: Hepg2 cells were a human cell line (American Type Culture Collection number, ATCC-HB8065).
In this Example, the slide in situ cell preparation and hybridization protocol was followed.

[1] = test system: WBC cells (white blood cells); assay: Slide in situ hybridization, effect of DMSO (Example 1), WBC cells, Y probe; assay type: cell-based, human; settings: assay solution HC + 10% DMSO
Excerpt: (§1) The Y probe (also referred to as the HYR probe) was a collection of oligonucleotides specific for human Y chromosome α-satellite DNA repeated sequences; where the probe was to be detected under a fluorescent microscope, it was labeled at its 5' end, via an Aminolink linker molecule (aminohexyl, from Applied Biosystems, Inc.), to a Texas Red Moiety.
WBC cells (white blood cells) were obtained from a healthy human.
(§2) Slide in situ Cell Preparation and Hybridization Protocol
(§3) 1) Cells were suspended in a fixative (3 vol ethanol plus 1 vol methanol) and transferred to glass slides by centrifugation using a Cytospin apparatus.
(§4) 2) The assay solution (consisting of the hybridization cocktail HC alone or mixed with a compound or compounds being tested as an enhancer) with the DNA probe (25 ul) was placed over the cells and covered with a coverslip.
(§5) 3) The slide was heated at 90° C. for 5 minutes for DNA denaturation, then incubated at 46° C. for 30 minutes for hybridization.
(§6) 4) Cells were washed once with the wash solution #1, which was equilibrated at 42° C. Then cells were washed ten times with wash solution #2, which was equilibrated at 42° C.
(§7) 5) Mounting solution (50% glycerol (v/v) in 1×PBS plus the nuclear stain Hoechst, (#33258; 1 ug/ml) was placed on the cells and covered with a coverslip. […]

Amniotic cells = assay: Slide in situ hybridization, effect of DMSO (Example 1), amniotic cells, Y probe; assay type: cell-based, human; settings: assay solution HC + 10% DMSO
Excerpt: as §1
Amniotic cells were obtained by standard amniocentesis procedure.
as §2, §3, §4, §5, §6, §7

Hepg 2 cells = assay: Slide in situ hybridization, DMSO plus one additional compound (Example 2), HYR probe; assay type: cell-based, human
Procedure: as §2, §3, §4, §5, §6
5) Mounting solution (50% glycerol (v/v) in 1×PBS plus the nuclear stain Hoechst, (#33258; 1 ug/ml) was placed on the cells and covered with a coverslip.
6) The hybridization signal was observed under an Olympus BH10 microscope with fluorescent capabilities using a rhodamine derivative filters (excitation wavelength of 567 nm, emission wavelength of 584 nm).
The inclusion of DMSO in an in situ assay solution increased the permeation of the nucleic acid probes into the cells and gave hybridization signal in over 95% of the cells. In this Example, we show the effect of adding, in addition to DMSO, 10 percent (v/v) of an additional compound to the assay solution. The additional compounds added were: squalane (an aliphatic alkane), dodecyl alcohol (an alcohol), beta-cyclodextrin (a sugar), isopropyl palmitate (a fatty acid ester), 1,2, propanediol (an alcohol), pyrrolidinone (a lactam) and hexamethyldisiloxane (an organic silane).
In this Example, the hybridization cocktail consisted of nine volumes of HC-DMSO plus one volume of an additional compound. In the control sample, one volume of water was added instead of one volume of additional compound. As a result, in all samples, the concentration of DMSO in the cocktail was 9 percent (v/v).
The Slide In Situ Cell Preparation and Hybridization protocol was followed. The cells used were Hepg 2 cells. The probe used was an HYR probe specific for human Y chromosome α-satellite DNA repeated sequences; at its 5' end, via an Aminolink linker molecule, the probe was linked to a Texas Red moiety. A signal intensity of 4 was assigned to the slide in which the assay solution was HC plus 10% DMSO (control slide) and all other slides were rated 1, 2, 3 or 4 in comparison to the control slide, depending on whether the intensity was 1, 2, 3, or 4 times that of the control slide, respectively.
The results are an average of four independent experiments.

Hela cells = assay: Liquid in situ hybridization with flow cytometry, DMSO plus additional compound (Example 4), 28S RNA and NR probes; assay type: cell-based
Excerpt: A Coulter Profile II flow cytometer was used for flow cytometry. With FITC as the probe dye, the filter for LFL3 was a 635 nm long pass filter and the filter for LFL1 was a 540 bp filter; the excitation wavelength was 488 nm. PMT1 and PMT3 settings were adjusted as required. A typical useful setting when fluorescein is the dye moiety is to have a PMT1 setting of 1100, a PMT3 setting of 900, and color compensation (PMT1, PMT3) of 15 percent.
Liquid in Situ Cell Preparation and Hybridization Protocol
1. Cells were fixed in solution F, then resuspended in 2x SSC.
2. The cells were spun out of solution and resuspended in an assay solution (consisting of the hybridization cocktail HC alone or in combination with a compound or compounds being tested as an enhancer.)
3. After 30 min. at 42° C., the cells were washed in wash solution #1 preheated to 42° C. by centrifuging them out of the assay solution.
4. Cells were next washed in wash solution #2 preheated to 42° C.
5. Cells were resuspended in a 1X PBS solution containing 0.002% trypan blue as a counterstain.
6. Cells were run on a flow cytometer and a "Count vs. LFL1" histogram was generated. ("Count" refers to cell count.) This histogram was used as the basis for determining the mean LFL1.
The effect on probe signal intensity of adding, in addition to DMSO, additional compounds to the assay solution was determined in an in situ liquid hybridization assay. The data was analyzed by flow cytometry.
The Liquid In Situ Cell Preparation and Hybridization Protocol was followed. The cells used were Hela cells. The probes used were a 28S RNA probe (SEQ ID NO: 1) and an NR probe.
The 28S RNA probe (SEQ ID NO: 1) is a target-specific probe specific for ribosomal RNA fluorescence obtained with it represents the sum of fluorescence from target-bound probe, non-specifically bound probe and autofluorescence from cellular molecules. The NR probe (SEQ ID NO: 2) is specific for a plant nucleic acid sequence and, in the current Example, the fluorescence obtained with it represent the sum of fluorescence from non-specifically bound probe and autofluorescence.
In this experiment, the hybridization cocktail consisted of nine volumes of HC-DMSO plus one volume of additional compound. In the control sample, one volume of water replaced the one volume of additional compound. As a result, in all samples, the concentration of DMSO was 9 percent (v/v).
The ratio, 28S/NR, is the ratio of the mean LFL1 observed with the 28S RNA probe (SEQ ID NO: 1) to the mean LFL1 observed with the NR probe (SEQ ID NO: 2). The results in the "28S RNA probe" and "NR probe" columns give the mean LFL1 observed with the 28S RNA and NR probes, respectively (SEQ ID NO: 1 and SEQ ID NO: 2, respectively).

[2] = test system: Human female white blood cells (karyotype XX); assay: Signal enhancers in the mounting solution after in situ hybridization (Example 6), HXR probes, fluorescent microscope; assay type: cell-based; settings: one volume compound plus 9 volumes mounting solution; rhodamine HXR probes; water control = 1
Procedure: After the in situ hybridization step, the cells were washed and then modified mounting solution was added and cells were observed under the microscope for fluorescence signal. Modified mounting solution was 9 volumes of mounting solution and one volume of additional compound, which was the compound being tested for its ability to be a signal enhancer. Mounting solution consisted of 0.1% 1,4 diphenylamine (antifade) in 50% glycerol (v/v), and nuclear stain Hoechst (#33258; 1 ug/ml).
Human female white blood cells (karyotype XX) were hybridized at 85° C. for 15 minutes with female chromosome HXR probes labelled with a rhodamine fluor. Cells were washed with wash buffers #1 and #2, and then suspended in a modified mounting solution. The additional compound in the modified mounting solution was varied; as a control, water was used as the additional compound. The signal intensity was observed under the fluorescent microscope.

[3] = test system: Human female white blood cells (karyotype XX); assay: as above; assay type: cell-based; settings: not further described

Row | Structure (SMILES) | Fluorescent Signal intensity (Scale of 1 to 4) (Hepg2 cells) | Fluorescent Signal intensity (Scale of 1 to 4) [1] | Fluorescent Signal intensity (Scale of 1 to 4) (Amniotic cells) | Cells giving hybridization signal (Hepg 2 cells; DMSO included in in situ assay solution, cells not specified (opening statement of Example 2)) | Optimal DMSO concentration for signal brightness (Hela cells; DMSO alone, nine percent) | Fluorescent signal (Scale of 1 to 4) (Hepg 2 cells; 10% (v/v) additional compound with 9% DMSO, slide rating x 0.5, water control = 2, average of four experiments) | 28S RNA Probe, mean LFL1 (Hela cells; 10% additional compound with 9% DMSO, FITC 28S RNA probe, water control 6.070, average of four experiments) | NR Probe, mean LFL1 (Hela cells; 10% additional compound with 9% DMSO, FITC NR probe (non-specific binding and autofluorescence), water control 0.137) | Ratio 28S RNA/NR (ratio of mean LFL1) (Hela cells; 10% additional compound with 9% DMSO, water control 44) | Signal Intensity Scale of 1 to 4 [2] | Effect on signal in an earlier experiment [3]
1 | C[S+](C)[O-] [DMSO, dimethyl sulfoxide] | 4 | 4 | 4 | over 95% | at or close to the optimal DMSO concentration for signal brightness |  |  |  |  |  | 
2 | CCCCCCCCCCCCO [dodecyl alcohol] |  |  |  |  |  | 2 | 4.804 | 0.142 | 34 | 4 | decrease in signal
